Measured values reported in patent US11603349B2, “Anti-fibrotic compounds” (Certa Therapeutics Pty Ltd, priority 2017, dated 2023).
Where a name gives a salt, the structure may show the parent alone.

Columns and labels:
[1] = test system: TGF-β induced [14C]-proline incorporation in rat mesangial cells; assay: [14C]-proline incorporation assay (collagen biosynthesis); format: cell-based; conditions: Rattus norvegicus, Mesangial cell, 44 h
[2] = MTS tetrazolium reduction cell viability assay; conditions: rat, rat mesangial cells (1097/IRMC cells), TGF-β1 stimulated, CC50 (μM), vs 1% DMSO vehicle
[3] = inhibition of TGF-β1 (1 ng/ml) induced [14C]-proline incorporation, IRMC cells

SMILES	IC50 [1, 3] [µM]	CC50 at 48 h [2] [µM]	IC50 [1] [µM]
COc1ccc(C2CC2C(=O)Nc2cccc(Cl)c2)cc1OCc1cnn(C)c1 (stereo not drawn) [Example 156, N-(3-chlorophenyl)-2-(4-methoxy-3-((1-methyl-1H-pyrazol-4-yl)methoxy)phenyl)cyclopropane-1-carboxamide]	17.8	> 100	
C#CCOc1ccc(/C=C/C(=O)N2CCOc3ccccc32)cc1OC [Example 12, (E)-1-(2,3-dihydro-4H-benzo[b][1,4]oxazin-4-yl)-3-(3-methoxy-4-(prop-2-yn-1-yloxy)phenyl)prop-2-en-1-one]	10.2	335	
C#CCOc1ccc(C2CC2C(=O)Nc2ccc(F)cc2)cc1OC (stereo not drawn) [Example 133, N-(4-fluorophenyl)-2-(3-methoxy-4-(prop-2-yn-1-yloxy)phenyl)cyclopropanecarboxamide]	23.4	> 300	
COc1ccc(/C=C/C(=O)Nc2cccc(Cl)c2)cc1N1CCOCC1 [Example 151, (E)-N-(3-chlorophenyl)-3-(4-methoxy-3-morpholinophenyl)acrylamide]	31.6	> 300	
COc1ccc(/C=C/C(=O)Nc2ccccc2C(=O)O)c(OCc2cccnc2)c1OC [Example 96, (E)-2-(3-(3,4-dimethoxy-2-(pyridin-3-ylmethoxy)phenyl)acrylamido)benzoic Acid]	33.6	> 300	
C#CCOc1ccc(/C=C/C(=O)Nc2ccccc2C#N)c(OC2CN(C)C2)c1OC [Example 79, (E)-N-(2-cyanophenyl)-3-[3-methoxy-2-(1-methylazetidin-3-yl)oxy-4-prop-2-ynoxy-phenyl]prop-2-enamide]	9.52	23.4	
COc1ccc(/C=C/C(=O)Nc2ccccc2C#N)c(OCCN(C)C)c1 [Example 94, (E)-N-(2-cyanophenyl)-3-[2-[2-(dimethylamino)ethoxy]4-methoxy-phenyl]prop-2-enamide]	21.7	35	
COc1cc(/C=C/C(=O)Nc2ccccc2C(=O)O)ccc1OCC1CCNCC1 [Example 50, (E)-2-(3-(3-methoxy-4-(piperidin-4-ylmethoxy)phenyl)acrylamido)benzoic acid]	47.4	107	
C#CCOc1ccc(/C=C/C(=O)Nc2ccccc2-c2nn[nH]n2)cc1OC [Example 16, (E)-N-(2-(2H-tetrazol-5-yl)phenyl)-3-(3-methoxy-4-(prop-2-yn-1-yloxy)phenyl)acrylamide]	22.3	107	
C#CCOc1ccc(/C=C/C(=O)Nc2ccccc2C(=O)O)c(OCCN(C)C)c1OC [Example 78, (E)-2-(3-(2-(2-(dimethylamino)ethoxy)-3-methoxy-4-(prop-2-yn-1-yloxy)phenyl)acrylamido)-benzoic acid]	30.4	404	
C#CCOc1ccc(/C=C/C(=O)Nc2ccccc2-c2c[nH]cn2)cc1OC [Example 25, (E)-N-(2-(1H-imidazol-4-yl)phenyl)-3-(3-methoxy-4-(prop-2-yn-1-yloxy)phenyl)acrylamide]	45.5	> 300	
C#CCOc1ccc(/C=C/C(=O)Nc2ccccc2C(=O)NCc2cccnc2)cc1OC [Example 43, (E)-2-(3-(3-methoxy-4-(prop-2-yn-1-yloxy)phenyl)acrylamido)-N-(pyridin-3-ylmethyl)benzamide]	44.6	> 300	
C#CCOc1ccc(/C=C/C(=O)Nc2ccccc2C(=O)NCc2cncn2C)cc1OC [Example 40, (E)-2-(3-(3-methoxy-4-(prop-2-yn-1-yloxy)phenyl)acrylamido)-N-((1-methyl-1H-imidazol-5-yl)methyl)benzamide]	6.76	> 300	
C#CCOc1ccc(/C=C/C(=O)Nc2ccccc2-c2nc(C)no2)cc1OC [Example 28, (E)-3-(3-methoxy-4-(prop-2-yn-1-yloxy)phenyl)-N-(2-(3-methyl-1,2,4-oxadiazol-5-yl)phenyl)acryl-amide]	11.6	146	
COc1cc(/C=C/C(=O)Nc2ccccc2C(=O)O)ccc1OCc1ccccn1 [Example 55, (E)-2-(3-(3-methoxy-4-(pyridin-2-ylmethoxy)phenyl)acrylamido)benzoic acid]	44.3	86.1	
C#CCOc1ccc(/C=C/C(=O)Nc2ccccc2C#N)cc1OC [Example 6, (E)-N-(2-cyanophenyl)-3-(3-methoxy-4-(prop-2-yn-1-yloxy)phenyl)acrylamide]	11.4	> 300	
C#CCOc1ccc(/C=C/C(=O)Nc2ccccc2C#N)c(OC2CCNCC2)c1OC [Example 88, (E)-N-(2-cyanophenyl)-3-[3-methoxy-2-(4-piperidyloxy)-4-prop-2-ynoxy-phenyl]prop-2-enamide]	4.45	12.4	
C#CCOc1ccc(/C=C/C(=O)n2nc(O)c3ccccc32)cc1OC [Example 15, (E)-1-(3-hydroxy-1H-indazol-1-yl)-3-(3-methoxy-4-(prop-2-yn-1-yloxy)phenyl)prop-2-en-1-one]	25.2	304	

SMILES	IC50 [1, 3] [µM]	CC50 at 48 h [2] [µM]	IC50 [1] [µM]
COc1cc(/C=C/C(=O)Nc2ccccc2C(=O)O)ccc1OCc1c(C)noc1C [Example 52, (E)-2-(3-(4-((3,5-dimethylisoxazol-4-yl)methoxy)-3-methoxyphenyl)acrylamido)benzoic acid]	11.3	140	
COc1ccc(/C=C/C(=O)Nc2ccccc2C(=O)O)cc1OCCc1cccnc1 [Example 64, (E)-2-(3-(4-methoxy-3-(2-(pyridin-3-yl)ethoxy)phenyl)acrylamido)benzoic acid]	14.2	142	
C#CCOc1ccc(/C=C/C(=O)Nc2ccc(Cl)c(Cl)c2)cc1OC [Example 7, (E)-N-(3,4-dichlorophenyl)-3-(3-methoxy-4-(prop-2-yn-1-yloxy)phenyl)acrylamide]	1.97	62.5	
C#CCOCc1cc(/C=C/C(=O)Nc2ccccc2C(=O)O)ccc1OC [Example 71, (E)-2-(3-(4-methoxy-3-((prop-2-yn-1-yloxy)methyl)phenyl)acrylamido)benzoic acid]	12.2	116	
C#CCOc1ccc(/C=C/C(=O)Nc2ccccc2-c2cnn(C)c2)cc1OC [Example 22, (E)-3-(3-methoxy-4-(prop-2-yn-1-yloxy)phenyl)-N-(2-(1-methyl-1H-pyrazol-4-yl)phenyl)-acrylamide]		240	16.4
COc1ccc(/C=C/C(=O)Nc2cccc(Cl)c2)cc1OCc1cnn(C)c1 [Example 160, (E)-N-(3-chlorophenyl)-3-(4-methoxy-3-((1-methyl-1H-pyrazol-4-yl)methoxy)phenyl)acrylamide]	30.4	> 300	
COc1cc(/C=C/C(=O)Nc2ccccc2C(=O)O)ccc1OCC1COC1 [Example 54, (E)-2-(3-(3-methoxy-4-(oxetan-3-ylmethoxy)phenyl)acrylamido)benzoic acid]	24	> 300	
C#CCOc1ccc(/C=C/C(=O)Nc2ccccc2-c2noc(=O)[nH]2)cc1OC [Example 19, (E)-3-(3-methoxy-4-(prop-2-yn-1-yloxy)phenyl)-N-(2-(5-oxo-4,5-dihydro-1,2,4-oxadiazol-3-yl)phenyl)acrylamide]	19.7	122	
CN1Cc2ccc(/C=C/C(=O)Nc3ccccc3C(=O)O)cc2C1=O [Example 108, (E)-2-(3-(2-methyl-3-oxoisoindolin-5-yl)acrylamido)benzoic acid]	40.4	> 300	
C#CCOc1ccc(/C=C/C(=O)n2nc(O)c3ccccc32)cc1CC [Example 126, (E)-3-(3-ethyl-4-(prop-2-yn-1-yloxy)phenyl)-1-(3-hydroxy-1H-indazol-1-yl)prop-2-en-1-one]	3.81	> 27.5	
COc1cc(C2CC2C(=O)Nc2ccc(Cl)cc2)ccc1OCC1COC1 (stereo not drawn) [Example 154, N-(4-chlorophenyl)-2-(3-methoxy-4-(oxetan-3-ylmethoxy)phenyl)cyclopropane-1-carboxamide]	8.97	> 300	
COc1cc(/C=C/C(=O)Nc2ccccc2C(=O)O)ccc1OCc1ccnn1C [Example 60, (E)-2-(3-(3-methoxy-4-((1-methyl-1H-pyrazol-5-yl)methoxy)phenyl)acrylamido)benzoic acid]	20.3	100	
C#CCOc1ccc(/C=C/C(=O)N2CCOc3ccccc32)cc1CC [Example 113, (E)-1-(2H-benzo[b][1,4]oxazin-4(3H)-yl)-3-(3-ethyl-4-(prop-2-yn-1-yloxy)phenyl)prop-2-en-1-one]	7.75	32.6	
C#CCOc1ccc(/C=C/C(=O)Nc2ccccc2C(=O)NCC2CCN(C)CC2)cc1OC [Example 37, (E)-2-(3-(3-methoxy-4-(prop-2-yn-1-yloxy)phenyl)acrylamido)-N-((1-methylpiperidin-4-yl)methyl)benzamide]	18	29.2	
C#CCOc1ccc(C2CC2C(=O)Nc2ccc(C#N)cc2)cc1OC (stereo not drawn) [Example 135, N-(4-cyanophenyl)-2-(3-methoxy-4-(prop-2-yn-1-yloxy)phenyl)cyclopropanecarboxamide]	45.3	> 300	
COc1ccc(C2CC2C(=O)Nc2ccccc2Cl)cc1OCc1cnn(C)c1 (stereo not drawn) [Example 157]	12.6	45.3	
COc1cc(/C=C/C(=O)Nc2ccccc2C(=O)O)ccc1CN1CCOCC1 [Example 69, (E)-2-(3-(3-methoxy-4-(morpholinomethyl)phenyl)acrylamido)benzoic acid]	48.4	691	
COc1ccc(/C=C/C(=O)Nc2ccc(C#N)cc2)c(OCCN(C)C)c1OC [Example 129, (E)-N-(4-cyanophenyl)-3-(2-(2-(dimethylamino)ethoxy)-3,4-dimethoxyphenyl)acrylamide trifluoroacetic acid salt]	12.3	28.9	
